Laboratory results published in US11180462B2, “Microbiocidal oxadiazole derivatives” (SYNGENTA PARTICIPATIONS AG, priority 2015, dated 2021).

Key:
[1] = system: Puccinia recondita f. Sp. Tritici; assay: Fungicidal activity against Puccinia recondita f. sp. tritici / wheat / leaf disc preventative (brown rust); assay type: in vivo; settings: foliar, 200 ppm in the applied formulation, wheat leaf segments, preventative, compared to untreated control leaf disks, read-out: disease control
Summary of the method: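 200 ppm spray on wheat cv. Kanzler leaf segments; spore inoculation +1 day; 19° C., 75% rh, 12 h/12 h light cycle; single rating of % control vs untreated at 7 to 9 days.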

[2] = system: Puccinia recondita f. Sp. Tritici; assay: Fungicidal activity against Puccinia recondita f. sp. tritici / wheat / leaf disc curative (brown rust); assay type: in vivo; settings: foliar, 24 h, 200 ppm in the applied formulation, wheat leaf segments, curative (applied 1 day after inoculation), compared to untreated control leaf disks, read-out: disease control
Summary of the method: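 Wheat cv. Kanzler leaf segments on agar, inoculated with rust spore suspension, kept dark at 19° C and 75% RH; formulated compound sprayed 1 day post-inoculation. Incubated 19° C, 75% RH, 12 h light/12 h dark; percent disease control vs untreated scored 6 to 8 days after application.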

Phakopsora Pachyrhizi = assay: Fungicidal activity against Phakopsora pachyrhizi / soybean / leaf disc preventative (Asian soybean rust); assay type: in vivo; settings: foliar, 200 ppm in the applied formulation, soybean leaf disks, compared to untreated control leaf disks, read-out: disease control
Summary of the method: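 Scored 12 to 14 days post-application as percent control relative to untreated check discs, rust spores were sprayed under the disc one day after compound treatment. Incubation: 20°C, 75% rh, first 24–36 h in darkness, then 12 h daily light; discs kept on water agar.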

[3] = system: Glomerella lagenarium (Colletotrichum lagenarium); assay: Fungicidal activity against Glomerella lagenarium (Colletotrichum lagenarium) liquid culture / cucumber / preventative (anthracnose); assay type: cell-based; settings: Colletotrichum orbiculare; 20 ppm in the applied formulation; liquid culture (PDB), growth inhibition measured photometrically after 3 to 4 days; compared to untreated control; read-out: disease control
Summary of the method: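 Percent activity against the untreated check was derived from photometric growth measurements made 2 to 7 days after conidia in potato dextrose broth were combined with compound at 20 ppm. Cultures were kept dark at 24 °C and 96% humidity.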

CCCN(Cc1ccc(-c2noc(C(F)(F)F)n2)cc1)C(=O)C(C)OC (centres unmarked) [Compound 1.666, 2-methoxy-N-propyl-N-[[4-[5-(trifluoromethyl)-1,2,4-oxadiazol-3-yl]phenyl]methyl]-propanamide]
≥ 80%: pest or weed control at 200 ppm [1] | pest or weed control at 200 ppm [2] | pest or weed control at 200 ppm (Phakopsora Pachyrhizi) | inhibition of growth at 20 ppm [3]

CCON(Cc1ccc(-c2noc(C(F)(F)F)n2)cc1)C(=O)C1CCOC1 (centres unmarked) [Compound 1.617, N-ethoxy-N-[[4-[5-(trifluoromethyl)-1,2,4-oxadiazol-3-yl]phenyl]methyl]-tetrahydrofuran-3-carboxamide]
≥ 80%: pest or weed control at 200 ppm [1] | pest or weed control at 200 ppm [2] | pest or weed control at 200 ppm (Phakopsora Pachyrhizi) | inhibition of growth at 20 ppm [3]

CCC(=O)N(Cc1ccc(-c2noc(C(F)(F)F)n2)c(F)c1F)OC [Compound 1.585, N-[[2,3-difluoro-4-[5-(trifluoromethyl)-1,2,4-oxadiazol-3-yl)phenyl]methyl)-N-methoxy-propanamide]
≥ 80%: pest or weed control at 200 ppm [1] | pest or weed control at 200 ppm [2] | pest or weed control at 200 ppm (Phakopsora Pachyrhizi) | inhibition of growth at 20 ppm [3]

CON(Cc1ccc(-c2noc(C(F)(F)F)n2)cc1)C(=O)C(C)(C)O [Compound 1.784, 2-hydroxy-N-methoxy-2-methyl-N-[[4-[5-(trifluoromethyl)-1,2,4-oxadiazol-3-yl]phenyl]methyl]-propanamide]
≥ 80%: pest or weed control at 200 ppm [1] | pest or weed control at 200 ppm [2] | pest or weed control at 200 ppm (Phakopsora Pachyrhizi) | inhibition of growth at 20 ppm [3]

CC(C)N(Cc1ccc(-c2noc(C(F)(F)F)n2)cc1)C(=O)C1CC1 [Compound 1.599, N-isopropyl-N-[[4-[5-(trifluoromethyl)-1,2,4-oxadiazol-3-yl]phenyl]methyl]-cyclopropane-carboxamide]
≥ 80%: pest or weed control at 200 ppm [1] | pest or weed control at 200 ppm [2] | pest or weed control at 200 ppm (Phakopsora Pachyrhizi) | inhibition of growth at 20 ppm [3]

CCC(C)N(Cc1ccc(-c2noc(C(F)(F)F)n2)cc1)C(=O)C(C)OC (centres unmarked) [Compound 1.402, 2-methoxy-N-sec-butyl-N-[[4-(5-(trifluoromethyl)-1,2,4-oxadiazol-3-yl]phenyl]methyl]-propanamide]
≥ 80%: pest or weed control at 200 ppm [1] | pest or weed control at 200 ppm [2] | pest or weed control at 200 ppm (Phakopsora Pachyrhizi) | inhibition of growth at 20 ppm [3]

C#CCN(Cc1ccc(-c2noc(C(F)(F)F)n2)cc1)C(=O)CCC [Compound 1.165, N-prop-2-ynyl-N-[[4-[5-(trifluoromethyl)-1,2,4-oxadiazol-3-yl]phenyl]methyl]-butanamide]
≥ 80%: pest or weed control at 200 ppm [1] | pest or weed control at 200 ppm [2] | pest or weed control at 200 ppm (Phakopsora Pachyrhizi) | inhibition of growth at 20 ppm [3]

CCON(Cc1ccc(-c2noc(C(F)(F)F)n2)cc1)C(=O)C(C)CC (centres unmarked) [Compound 1.622, N-ethoxy-2-methyl-N-[[4-[5-(trifluoromethyl)-1,2,4-oxadiazol-3-yl]phenyl]methyl]-butanamide]
≥ 80%: pest or weed control at 200 ppm [1] | pest or weed control at 200 ppm [2] | pest or weed control at 200 ppm (Phakopsora Pachyrhizi) | inhibition of growth at 20 ppm [3]

CCC(C)C(=O)N(O)Cc1ccc(-c2noc(C(F)(F)F)n2)cc1 (centres unmarked) [Compound 1.765, N-hydroxy-2-methyl-N-[[4-[5-(trifluoromethyl)-1,2,4-oxadiazol-3-yl]phenyl]methyl]-butanamide]
≥ 80%: pest or weed control at 200 ppm [1] | pest or weed control at 200 ppm [2] | pest or weed control at 200 ppm (Phakopsora Pachyrhizi) | inhibition of growth at 20 ppm [3]

CON(Cc1ccc(-c2noc(C(F)(F)F)n2)cc1)C(=O)C(C)(C)C [Compound 1.42, N-methoxy-2,2-dimethyl-N-[[4-[5-(trifluoromethyl)-1,2,4-oxadiazol-3-yl]phenyl]methyl]-propanamide]
≥ 80%: pest or weed control at 200 ppm [1] | pest or weed control at 200 ppm [2] | pest or weed control at 200 ppm (Phakopsora Pachyrhizi) | inhibition of growth at 20 ppm [3]

COCCCC(=O)N(O)Cc1ccc(-c2noc(C(F)(F)F)n2)cc1 [Compound 1.769, N-hydroxy-4-methoxy-N-[[4-[5-(trifluoromethyl)-1,2,4-oxadiazol-3-yl]phenyl]methyl]-butanamide]
≥ 80%: pest or weed control at 200 ppm [1] | pest or weed control at 200 ppm [2] | pest or weed control at 200 ppm (Phakopsora Pachyrhizi) | inhibition of growth at 20 ppm [3]

CCCC(=O)N(Cc1ccc(-c2noc(C(F)(F)F)n2)cc1)OC [Compound 1.24, N-methoxy-N-[[4-[5-(trifluoromethyl)-1,2,4-oxadiazol-3-yl]phenyl]methyl]-butanamide]
≥ 80%: pest or weed control at 200 ppm [1] | pest or weed control at 200 ppm [2] | pest or weed control at 200 ppm (Phakopsora Pachyrhizi) | inhibition of growth at 20 ppm [3]

O=C(CC1CC1)N(Cc1ccc(-c2noc(C(F)(F)F)n2)cc1)C1CC1 [Compound 1.99, N,2-dicyclopropyl-N-[[4-[5-(trifluoromethyl)-1,2,4-oxadiazol-3-yl]phenyl]methyl]-acetamide]
≥ 80%: pest or weed control at 200 ppm [1] | pest or weed control at 200 ppm [2] | pest or weed control at 200 ppm (Phakopsora Pachyrhizi) | inhibition of growth at 20 ppm [3]

CCCON(Cc1ccc(-c2noc(C(F)(F)F)n2)cc1)C(=O)C1CC1F (centres unmarked) [Compound 1.315, 2-fluoro-N-propoxy-N-[[4-[5-(trifluoromethyl)-1,2,4-oxadiazol-3-yl]phenyl]methyl]-cyclopropane-carboxamide]
≥ 80%: pest or weed control at 200 ppm [1] | pest or weed control at 200 ppm [2] | pest or weed control at 200 ppm (Phakopsora Pachyrhizi) | inhibition of growth at 20 ppm [3]

CCN(Cc1ccc(-c2noc(C(F)(F)F)n2)cc1)C(=O)CCOC [Compound 1.496, N-ethyl-3-methoxy-N-[[4-[5-(trifluoromethyl)-1,2,4-oxadiazol-3-yl]phenyl]methyl]-propanamide]
≥ 80%: pest or weed control at 200 ppm [1] | pest or weed control at 200 ppm [2] | pest or weed control at 200 ppm (Phakopsora Pachyrhizi) | inhibition of growth at 20 ppm [3]

CCC(=O)N(Cc1ccc(-c2noc(C(F)(F)F)n2)cc1)CC1CCCO1 (centres unmarked) [Compound 1.432, N-(tetrahydrofuran-2-ylmethyl)-N-[[4-[5-(trifluoromethyl)-1,2,4-oxadiazol-3-yl]phenyl]methyl]-propanamide]
≥ 80%: pest or weed control at 200 ppm [1] | pest or weed control at 200 ppm [2] | pest or weed control at 200 ppm (Phakopsora Pachyrhizi) | inhibition of growth at 20 ppm [3]

CCCC(=O)N(CCOC)Cc1ccc(-c2noc(C(F)(F)F)n2)cc1 [Compound 1.329, N-(2-methoxyethyl)-N-[[4-[5-(trifluoromethyl)-1,2,4-oxadiazol-3-yl]phenyl]methyl]-butanamide]
≥ 80%: pest or weed control at 200 ppm [1] | pest or weed control at 200 ppm [2] | pest or weed control at 200 ppm (Phakopsora Pachyrhizi) | inhibition of growth at 20 ppm [3]

CC(C)N(Cc1ccc(-c2noc(C(F)(F)F)n2)cc1)C(=O)C1(C)COC1 [Compound 1.679, N-isopropyl-3-methyl-N-[[4-[5-(trifluoromethyl)-1,2,4-oxadiazol-3-yl]phenyl]methyl]-oxetane-3-carboxamide]
≥ 80%: pest or weed control at 200 ppm [1] | pest or weed control at 200 ppm [2] | pest or weed control at 200 ppm (Phakopsora Pachyrhizi) | inhibition of growth at 20 ppm [3]

CON(Cc1ccc(-c2noc(C(F)(F)F)n2)cc1)C(=O)N(C)C [Compound 3.5, 1-methoxy-3,3-dimethyl-1-[[4-[5-(trifluoromethyl)-1,2,4-oxadiazol-3-yl]phenyl]methyl]urea]
≥ 80%: pest or weed control at 200 ppm [1] | pest or weed control at 200 ppm [2] | pest or weed control at 200 ppm (Phakopsora Pachyrhizi) | inhibition of growth at 20 ppm [3]

CON(Cc1ccc(-c2noc(C(F)(F)F)n2)c(F)c1F)C(=O)C1CC1 [Compound 1.584, N-[[2,3-difluoro-4-[5-(trifluoromethyl)-1,2,4-oxadiazol-3-yl]phenyl]methyl]-N-methoxy-cyclopropane-carboxamide]
≥ 80%: pest or weed control at 200 ppm [1] | pest or weed control at 200 ppm [2] | pest or weed control at 200 ppm (Phakopsora Pachyrhizi) | inhibition of growth at 20 ppm [3]

COCCN(Cc1ccc(-c2noc(C(F)(F)F)n2)cc1)C(=O)C1(C#N)CC1 [Compound 1.356, 1-cyano-N-(2-methoxyethyl)-N-[[4-[5-(trifluoromethyl)-1,2,4-oxadiazol-3-yl]phenyl]methyl]-cyclopropane-carboxamide]
≥ 80%: pest or weed control at 200 ppm [1] | pest or weed control at 200 ppm [2] | pest or weed control at 200 ppm (Phakopsora Pachyrhizi) | inhibition of growth at 20 ppm [3]

C#CCN(Cc1ccc(-c2noc(C(F)(F)F)n2)cc1)C(=O)CC(C)C [Compound 1.175, 3-methyl-N-prop-2-ynyl-N-[[4-[5-(trifluoromethyl)-1,2,4-oxadiazol-3-yl]phenyl]methyl]-butanamide]
≥ 80%: pest or weed control at 200 ppm [1] | pest or weed control at 200 ppm [2] | pest or weed control at 200 ppm (Phakopsora Pachyrhizi) | inhibition of growth at 20 ppm [3]

CON(Cc1ccc(-c2noc(C(F)(F)F)n2)cc1)C(=O)C1CC1 [Compound 1.2, N-methoxy-N-[[4-[5-(trifluoromethyl)-1,2,4-oxadiazol-3-yl]phenyl]methyl]-cyclopropane-carboxamide]
≥ 80%: pest or weed control at 200 ppm [1] | pest or weed control at 200 ppm [2] | pest or weed control at 200 ppm (Phakopsora Pachyrhizi) | inhibition of growth at 20 ppm [3]
